These are literature values, as cited in patent US11472851B2, “Recombinant bacillus subtilis and application thereof” (priority 2019, dated 2022).

Data set [1] relates to poultry.
The subject of data set [2] is macrophages.

Regarding “Sublancin (GLGKAQCAALWLQCASGGTIGCGGGAVACQNYRQFCR; Sublancin)”, the “immune function of poultry” value in data set [1] is reported as “enhance the immune function of poultry”. For the same substance, the phagocytosis of macrophages entry in data set [2] is on record as “enhance the phagocytosis of macrophages”.
